Columns and labels:
Conditions in all cases: exposure time: 72 h
[1] = test system: E13 (patient-derived glioblastoma stem cells of classical subtype); test: surviving fraction (nuclei count normalised to DMSO); higher = more cells surviving (less toxic)
[2] = test system: E21 (patient-derived glioblastoma stem cells of mesenchymal subtype); test: as above
[3] = test system: E28 (patient-derived glioblastoma stem cells of classical subtype); test: as above
[4] = test system: E34 (patient-derived glioblastoma stem cells of proneural subtype); test: as above
[5] = test system: E57 (patient-derived glioblastoma stem cells of mesenchymal subtype); test: as above
[6] = test system: FT3469 (normal neural stem cell line); test: as above
[7] = test system: E13; test: phenotypic distance (Euclidean, principal components) from DMSO controls (arbitrary units); higher = stronger morphological change
[8] = test system: E21; test: as above
[9] = test system: E28; test: as above
[10] = test system: E34; test: as above
[11] = test system: E57; test: as above
[12] = test system: FT3469; test: as above
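Wherever phenotypic distance (Euclidean, principal components) from DMSO controls is given: cell Painting imaging in 384-well plates, CellProfiler features reduced to at least 20 principal components, Euclidean distance versus same-plate DMSO vehicle wells (0.1% v/v), median over six images per well.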
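Wherever surviving fraction (nuclei count normalised to DMSO) is given: nuclei counted by high-content imaging of Hoechst-stained cells in laminin-coated 384-well plates, relative to 0.1% DMSO vehicle wells, with staurosporine as cell-death control.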

CN1CCC(NC(=O)c2cc(-c3c(O)cc(O)cc3Oc3ccc([N+](=O)[O-])cc3)on2)CC1 [NMS-E973]
Conditions | phenotypic distance | surviving fraction
[1], 4.1 nM | – | 0.964
[1], 12.3 nM | – | 0.953
[1], 37 nM | – | 0.944
[1], 111.1 nM | – | 0.93
[1], 333.3 nM | – | 0.219
[1], 1000 nM | – | 0.192
[1], 3000 nM | – | 0.21
[2], 4.1 nM | – | 0.891
[2], 12.3 nM | – | 0.959
[2], 37 nM | – | 0.926
[2], 111.1 nM | – | 0.817
[2], 333.3 nM | – | 0.416
[2], 1000 nM | – | 0.257
[2], 3000 nM | – | 0.116
[3], 4.1 nM | – | 1.01
[3], 12.3 nM | – | 0.913
[3], 37 nM | – | 0.909
[3], 111.1 nM | – | 0.657
[3], 333.3 nM | – | 0.31
[3], 1000 nM | – | 0.0561
[3], 3000 nM | – | 0.0288
[4], 4.1 nM | – | 0.907
[4], 12.3 nM | – | 0.921
[4], 37 nM | – | 0.855
[4], 111.1 nM | – | 0.804
[4], 333.3 nM | – | 0.45
[4], 1000 nM | – | 0.289
[4], 3000 nM | – | 0.0598
[5], 4.1 nM | – | 0.941
[5], 12.3 nM | – | 1.01
[5], 37 nM | – | 0.9484
[5], 111.1 nM | – | 1.01
[5], 333.3 nM | – | 0.373
[5], 1000 nM | – | 0.0919
[5], 3000 nM | – | 0.0144
[6], 4.1 nM | – | 0.918
[6], 12.3 nM | – | 0.951
[6], 37 nM | – | 0.975
[6], 111.1 nM | – | 0.798
[6], 333.3 nM | – | 0.677
[6], 1000 nM | – | 0.4901
[6], 3000 nM | – | 0.4
[7], 4.1 nM | 0.577 | –
[7], 12.3 nM | 0.562 | –
[7], 37 nM | 0.639 | –
[7], 111.1 nM | 1.31 | –
[7], 333.3 nM | 4.489 | –
[7], 1000 nM | 5.34 | –
[7], 3000 nM | 5.62 | –
[8], 4.1 nM | 0.751 | –
[8], 12.3 nM | 0.626 | –
[8], 37 nM | 0.843 | –
[8], 111.1 nM | 1.82 | –
[8], 333.3 nM | 4.147 | –
[8], 1000 nM | 5.3 | –
[8], 3000 nM | 5.82 | –
[9], 4.1 nM | 0.607 | –
[9], 12.3 nM | 0.671 | –
[9], 37 nM | 0.573 | –
[9], 111.1 nM | 1.19 | –
[9], 333.3 nM | 2.09 | –
[9], 1000 nM | 5.08 | –
[9], 3000 nM | 6.81 | –
[10], 4.1 nM | 0.575 | –
[10], 12.3 nM | 0.675 | –
[10], 37 nM | 0.615 | –
[10], 111.1 nM | 1.12 | –
[10], 333.3 nM | 1.98 | –
[10], 1000 nM | 3.12 | –
[10], 3000 nM | 5.65 | –
[11], 4.1 nM | 0.456 | –
[11], 12.3 nM | 0.414 | –
[11], 37 nM | 0.335 | –
[11], 111.1 nM | 1.07 | –
[11], 333.3 nM | 2.57 | –
[11], 1000 nM | 3.42 | –
[11], 3000 nM | 4.94 | –
[12], 4.1 nM | 2.07 | –
[12], 12.3 nM | 1.21 | –
[12], 37 nM | 1.04 | –
[12], 111.1 nM | 1.74 | –
[12], 333.3 nM | 1.89 | –
[12], 1000 nM | 2.79 | –
[12], 3000 nM | 3.7 | –

Source: the supplement of paper PMC13207355
